From US20110218506A1, “AMOROLFINE PATCH FOR THE TREATMENT OF ONYCHOMYCOSIS” (Galderma Research & Development, priority 2004, published 2011)
Structures can show the parent of a compound that is named as a salt.

Experiment: Solubility in formulation solvents
Type: physicochemical

solubility in ethanol (ethanol) | solubility in ethyl acetate (ethyl acetate) | SMILES
particularly soluble | – | CCC(C)(C)c1ccc(CC(C)CN2C[C@@H](C)O[C@@H](C)C2)cc1 (stereo partly drawn) [amorolfine HCl, hydrochloride of the cis-4-[3-[4-(1,1-dimethyl-propyl)phenyl]-2-methylpropyl]-2,6-dimethyl-morpholine]
– | highly soluble | O=C1CCCCCCCCCCCCCCO1 [Exaltolide]
